A short description of this data set: Solubility of sirolimus in aqueous media, solvents and benzyl benzoate/ethanol mixtures. Format: physicochemical.

In brackets after ≈: the same amount, converted by molar mass. Read-outs that look alike come from different tables or passages of the source.

In the case of `CO[C@H]1C[C@@H]2CC[C@@H](C)[C@@](O)(O2)C(=O)C(=O)N2CCCC[C@H]2C(=O)O[C@H]([C@H](C)C[C@@H]2CC[C@@H](O)[C@H](OC)C2)CC(=O)[C@H](C)/C=C(\C)[C@@H](O)[C@@H](OC)C(=O)[C@H](C)C[C@H](C)/C=C/C=C/C=C/1C` [Sirolimus, sirolimus], the solubility is 0.23 mg/mL (≈ 0.252 mM) (PBS with 0.1% SDS, aqueous with cosolvent or surfactant or cyclodextrin, PBS, 0.1% SDS, pH 7.4, ambient temperature, read-out: Solubility); “Not detected” (PBS, pH 7.4, ambient temperature); 163 mg/mL (benzyl benzoate/ethanol mixture, organic solvent or mixture, BB/EtOH Ratio 7, room temperature, read-out: Solubility in Benzyl Benzoate/Ethanol); 125 mg/mL (benzyl benzoate/ethanol mixture, organic solvent or mixture, BB/EtOH Ratio 9, room temperature, read-out: Solubility in Benzyl Benzoate/Ethanol); 90.1 mg/mL (benzyl benzoate/ethanol mixture, organic solvent or mixture, BB/EtOH Ratio 16, room temperature, read-out: Solubility in Benzyl Benzoate/Ethanol); 85.6 mg/mL (benzyl benzoate/ethanol mixture, organic solvent or mixture, BB/EtOH Ratio 18, room temperature, read-out: Solubility in Benzyl Benzoate/Ethanol). Further, the solubility reads like this: (oil or lipid, Castor oil, ambient temperature, read-out: Solubility) 3 mg/mL (≈ 3.28 mM); (organic solvent or mixture, Benzyl alcohol (BA), ambient temperature, read-out: Solubility) at least 387 mg/mL; (organic solvent or mixture, Benzyl benzoate (BB), ambient temperature, read-out: Solubility) 37 mg/mL (≈ 40.5 mM); (organic solvent or mixture, Dimethyl sulfoxide (DMSO), ambient temperature, read-out: Solubility) at least 243 mg/mL; (organic solvent or mixture, Ethanol (EtOH), ambient temperature, read-out: Solubility) 48.5 mg/mL (≈ 53.1 mM); (organic solvent or mixture, N methyl-2 Pyrrolidone (NMP), ambient temperature, read-out: Solubility) at least 284 mg/mL. For the same compound, the solubility (organic solvent or mixture, PEG 400, ambient temperature, read-out: Solubility) turned out to be 10.7 mg/mL (≈ 11.7 mM) and the solubility (organic solvent or mixture, Propylene glycol, ambient temperature, read-out: Solubility) came out at 11.8 mg/mL (≈ 12.9 mM).

These data come from patent US10682340B2, “Depot formulations” (DURECT CORPORATION, priority 2016, dated 2020).
